These results are taken from PubChem BioAssay (NCI).

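Values below derive from 48-hour exposures of cells grown in 96-well plates, with endpoints linearly interpolated between the two concentrations bracketing the appropriate inhibition level. GI50 = concentration required for 50% inhibition of growth. TGI denotes the concentration required for complete inhibition of growth.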

Holding throughout (experiment): NCI anticancer screen, dose series, 48 h
Experiment [1] relates to HCC-2998 colon.
Experiment [2] deals with HOP-62 NSCLC.
The subject of experiment [3] is U251 CNS.
Experiment [4] deals with SN12C renal.
For experiment [5], the system named is M14 melanoma.
The subject of experiment [6] is SK-OV-3 ovarian.
Experiment [7] concerns SNB-19 CNS.
Experiment [8] relates to SK-MEL-5 melanoma.
The test system of experiment [9] is SF-268 CNS.
In experiment [10] the test system is UACC-257 melanoma.

Consider `N#C/C(=C/C=C/c1ccccc1)S(=O)c1ccccc1` (stereo not given), for which the GI50 in [1] was 0.342 µM; in experiment [2] it was 1.29 µM; in [3] it was 0.483 µM; in experiment [4], 0.373 µM; in experiment [5], 0.655 µM; in experiment [6], 2.5 µM. The GI50 in [7] is 0.638 µM; in [8], 1.65 µM; in [9], 0.392 µM; in experiment [10], 0.845 µM. Besides, the TGI in [1] turned out to be 1.18 µM; in experiment [2], 5.36 µM; in experiment [3] it was 1.7 µM; in [4], 1.63 µM; in experiment [5] it was 2.7 µM; in [6], 10.9 µM. For the same compound, the TGI in [7] came to 2.58 µM; in experiment [8], 3.05 µM; in [9], 1.94 µM; in experiment [10], 2.41 µM.

On to `N/C(=N\c1nc2ccccc2s1)NC(=O)Nc1ccccc1Cl`, for which the GI50 in [1] was 0.348 µM; in experiment [2], 0.19 µM; in experiment [3], 0.122 µM; in experiment [4] it was 0.916 µM; in [5], 0.0509 µM; in [6] it was 0.643 µM. The GI50 was 0.201 µM in experiment [7], 0.318 µM in experiment [8], 0.832 µM in experiment [9] and 18.6 µM in experiment [10]. For the same compound, the TGI was 10.9 µM in experiment [1]; 26.7 µM in experiment [2]; 5.57 µM in [3]; above 50.1 µM in [4]; 2.14 µM in [5]; 25.3 µM in [6]. For the same compound, the TGI in experiment [7] was above 69.5 µM; in experiment [8], 13.5 µM; in experiment [9], above 44.2 µM; in [10] it was above 100 µM.

As to `CN(C)c1ccc2cc(-c3cc4c(oc3=O)-c3ccccc3OC4O)c(=O)oc2c1` (stereo not given), the GI50 in experiment [1] was 6.99 µM; in experiment [2], 3.88 µM; in [3] it was 5.85 µM; in experiment [4] it was 6.2 µM; in experiment [5], 4.73 µM; in experiment [6] it was 5.96 µM. For the same compound, the GI50 is 3.56 µM in experiment [7], 0.752 µM in [8], 6.26 µM in experiment [9] and 2.79 µM in [10]. Moreover, the TGI was 20.2 µM in experiment [1]; 11.6 µM in experiment [2]; 15.7 µM in experiment [3]; 19.9 µM in experiment [4]; 9.31 µM in experiment [5]; 19.8 µM in experiment [6]. Moreover, the TGI was 12.2 µM in experiment [7], 4.67 µM in [8], 18.7 µM in experiment [9] and 10.6 µM in experiment [10].

Consider `C=C1SC(=Nc2ccccc2Cl)N(C(=O)c2sc3ccccc3c2Cl)C1(C)C`, for which the GI50 is 8.54 µM in experiment [1]; 10.5 µM in experiment [2]; 4.12 µM in experiment [3]; 12.6 µM in [4]; 21 µM in experiment [5]; 7.94 µM in experiment [6]. The GI50 is 3.64 µM in experiment [7], 6.65 µM in experiment [8], 12.9 µM in experiment [9] and 29.2 µM in experiment [10]. Moreover, the TGI in experiment [1] was above 45 µM; in experiment [2], above 51.1 µM; in experiment [3], above 100 µM; in experiment [4] it was above 100 µM; in [5], above 69.9 µM; in [6], 80.2 µM. Besides, the TGI was above 100 µM in experiment [7], 25.2 µM in experiment [8], above 100 µM in experiment [9] and above 100 µM in [10].

Turning to `CC(=O)O[C@H]1CCC2[C@@H]3CCC4Nc5c(cnn5-c5ccccc5)C[C@]4(C)C3CC[C@@]21C` (stereo not given in full), the TGI in experiment [1] was found to be 25.3 µM; in experiment [2] it was 95.7 µM; in [3] it was 91.5 µM; in experiment [4] it was 41.4 µM; in experiment [5], 29.9 µM; in experiment [6] it was 42.4 µM. The TGI is 41.9 µM in [7], 22 µM in [8], above 100 µM in [9] and 23.7 µM in experiment [10].

Take `Cc1ccc(C(=O)CCC2C(=O)CC(C)(C)CC2=O)cc1`: the TGI in experiment [1], in experiment [2], in experiment [3], in experiment [4], in [5] and in [6] was above 100 µM each time. In addition, the TGI in experiment [7], in experiment [8], in experiment [9] and in experiment [10] was above 100 µM throughout.

For `CN(C1=NS(=O)(=O)N=C(N(C)c2ccccc2)O1)c1ccccc1`, the TGI in experiment [1] was 36.7 µM; in experiment [2], 41.9 µM; in experiment [3] it was 36.8 µM; in experiment [4], 41.2 µM; in experiment [5], 38.9 µM; in experiment [6] it was 78.8 µM. For the same compound, the TGI was determined as 43.4 µM in experiment [7], 25.5 µM in experiment [8], 57 µM in experiment [9] and 57.4 µM in experiment [10].

For `COc1c(B(O)O)cccc1-c1nc2c(F)cc3[nH]ncc3c2c2c1CCCC2`, the GI50 in [1] was 2.22 µM; in experiment [2], 0.133 µM; in experiment [3], 1.77 µM; in [4], 1.24 µM; in experiment [5], 3.8 µM; in [6] it was 1.5 µM. The GI50 is 1.66 µM in experiment [7], 3.08 µM in [8], 2.1 µM in [9] and 3.37 µM in [10]. Besides, the TGI is 8.91 µM in experiment [1]; 27.1 µM in [2]; above 44.9 µM in experiment [3]; 45 µM in [4]; 15.5 µM in experiment [5]; 36.1 µM in experiment [6]. The TGI was 37.9 µM in experiment [7], 11.5 µM in experiment [8], 18.8 µM in experiment [9] and 24 µM in experiment [10].
